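Five concentrations, 48 hours, 96-well plates. TGI marks complete inhibition of growth.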
How the values were obtained:
Experiment in all cases: inhibition of tumour cell growth, NCI panel, 48 h
786-0 renal = tested on: 786-0 renal
A549 NSCLC = tested on: A549 NSCLC
ACHN renal = tested on: ACHN renal
BT-549 breast = tested on: BT-549 breast
CAKI-1 renal = tested on: CAKI-1 renal
CCRF-CEM leukemia = tested on: CCRF-CEM leukemia
COLO 205 colon = tested on: COLO 205 colon
DU-145 prostate = tested on: DU-145 prostate
EKVX NSCLC = tested on: EKVX NSCLC
HCC-2998 colon = tested on: HCC-2998 colon
HCT-116 colon = tested on: HCT-116 colon
HCT-15 colon = tested on: HCT-15 colon
HL-60(TB) leukemia = tested on: HL-60(TB) leukemia
HOP-62 NSCLC = tested on: HOP-62 NSCLC
HOP-92 NSCLC = tested on: HOP-92 NSCLC
HS 578T breast = tested on: HS 578T breast
HT29 colon = tested on: HT29 colon
IGROV1 ovarian = tested on: IGROV1 ovarian
K-562 leukemia = tested on: K-562 leukemia
KM12 colon = tested on: KM12 colon
LOX IMVI melanoma = tested on: LOX IMVI melanoma
M14 melanoma = tested on: M14 melanoma
MALME-3M melanoma = tested on: MALME-3M melanoma
MCF7 breast = tested on: MCF7 breast
MDA-MB-231 breast = tested on: MDA-MB-231 breast
MDA-MB-435 = tested on: MDA-MB-435
MOLT-4 leukemia = tested on: MOLT-4 leukemia
NCI-H226 lung = tested on: NCI-H226 lung
NCI-H23 lung = tested on: NCI-H23 lung
NCI-H460 lung = tested on: NCI-H460 lung
NCI-H522 lung = tested on: NCI-H522 lung
NCI/ADR-RES ovarian = tested on: NCI/ADR-RES ovarian
OVCAR-3 ovarian = tested on: OVCAR-3 ovarian
OVCAR-4 ovarian = tested on: OVCAR-4 ovarian
OVCAR-5 ovarian = tested on: OVCAR-5 ovarian
OVCAR-8 ovarian = tested on: OVCAR-8 ovarian
PC-3 prostate = tested on: PC-3 prostate
RPMI-8226 leukemia = tested on: RPMI-8226 leukemia
RXF 393 renal = tested on: RXF 393 renal
SF-268 CNS = tested on: SF-268 CNS
SF-539 CNS = tested on: SF-539 CNS
SK-MEL-2 melanoma = tested on: SK-MEL-2 melanoma
SK-MEL-28 melanoma = tested on: SK-MEL-28 melanoma
SK-MEL-5 melanoma = tested on: SK-MEL-5 melanoma
SK-OV-3 ovarian = tested on: SK-OV-3 ovarian
SN12C renal = tested on: SN12C renal
SNB-19 CNS = tested on: SNB-19 CNS
SNB-75 CNS = tested on: SNB-75 CNS
SW-620 colon = tested on: SW-620 colon
T-47D breast = tested on: T-47D breast
TK-10 renal = tested on: TK-10 renal
U251 CNS = tested on: U251 CNS
UACC-257 melanoma = tested on: UACC-257 melanoma
UACC-62 melanoma = tested on: UACC-62 melanoma
UO-31 renal = tested on: UO-31 renal

CCOC(=O)c1c(C)n(-c2ccc(C)cc2)c(=O)c2ccccc2c(=O)c2c(=O)ccc(=O)c1=2
TGI (786-0 renal): > 100 µM
TGI (A549 NSCLC): 58.1 µM
TGI (ACHN renal): 31.9 µM
TGI (BT-549 breast): 57.9 µM
TGI (CAKI-1 renal): 28.1 µM
TGI (CCRF-CEM leukemia): > 100 µM
TGI (COLO 205 colon): 36.1 µM
TGI (DU-145 prostate): 39.3 µM
TGI (EKVX NSCLC): 80 µM
TGI (HCC-2998 colon): 27.7 µM
TGI (HCT-116 colon): 33.3 µM
TGI (HCT-15 colon): 35.1 µM
TGI (HL-60(TB) leukemia): 40.8 µM
TGI (HOP-62 NSCLC): 46 µM
TGI (HOP-92 NSCLC): 38.2 µM
TGI (HS 578T breast): 44.7 µM
TGI (HT29 colon): 38.7 µM
TGI (IGROV1 ovarian): > 100 µM
TGI (K-562 leukemia): 32.1 µM
TGI (KM12 colon): 30.3 µM
TGI (LOX IMVI melanoma): 36.4 µM
TGI (M14 melanoma): 42.9 µM
TGI (MALME-3M melanoma): 32.5 µM
TGI (MCF7 breast): 63.9 µM
TGI (MDA-MB-231 breast): > 100 µM
TGI (MDA-MB-435): 30.2 µM
TGI (MOLT-4 leukemia): 11.4 µM
TGI (NCI-H226 lung): 59.7 µM
TGI (NCI-H23 lung): 32 µM
TGI (NCI-H460 lung): 44.9 µM
TGI (NCI-H522 lung): 42.6 µM
TGI (NCI/ADR-RES ovarian): 58.4 µM
TGI (OVCAR-3 ovarian): 29.8 µM
TGI (OVCAR-4 ovarian): 58.5 µM
TGI (OVCAR-5 ovarian): 75.5 µM
TGI (OVCAR-8 ovarian): 33.6 µM
TGI (PC-3 prostate): 56.6 µM
TGI (RPMI-8226 leukemia): 24.9 µM
TGI (RXF 393 renal): 41.3 µM
TGI (SF-268 CNS): 54.2 µM
TGI (SF-539 CNS): 43.7 µM
TGI (SK-MEL-2 melanoma): 61 µM
TGI (SK-MEL-28 melanoma): 27.1 µM
TGI (SK-MEL-5 melanoma): 30.4 µM
TGI (SK-OV-3 ovarian): 73.3 µM
TGI (SN12C renal): 66.7 µM
TGI (SNB-19 CNS): 51.7 µM
TGI (SNB-75 CNS): 81.7 µM
TGI (SW-620 colon): 49.9 µM
TGI (T-47D breast): 72.2 µM
TGI (TK-10 renal): 29.4 µM
TGI (U251 CNS): 44.9 µM
TGI (UACC-257 melanoma): 51.2 µM
TGI (UACC-62 melanoma): 52 µM
TGI (UO-31 renal): > 100 µM

— PubChem BioAssay (NCI)
